Earlier results on one substance are cited in patent US11931418B2, “Methods of treating severe inflammation” (Ashvattha Therapeutics, Inc., priority 2020, dated 2024).

The data set has as its system SARS-CoV-2 patients. As to conditions: COVID-19 patients.

Regarding lopinavir-ritonavir, the clinical benefit entry was “no benefit observed”.
